Assay results published in ChEMBL document CHEMBL2407004, “3-Acyl-5-hydroxybenzofuran derivatives as potential anti-estrogen breast cancer agents: a combined experimental and theoretical investigation” (Bioorg Med Chem Lett, 2013).

Test system: MCF7
Test: Antiproliferative activity against human MCF7 cells after 48 hrs by MTT assay
Type: functional, cell-based
Settings: MCF7, 48 h

SMILES | IC50
CC/C(=C(\c1ccccc1)c1ccc(OCCN(C)C)cc1)c1ccccc1 [TAMOXIFEN] | 12.3 µM
COc1cc2occ(C(=O)/C=C/c3cccc(Cl)c3)c2cc1O | 464 µM
COc1cc2occ(C(=O)c3cccc(NC(C)=O)c3)c2cc1O | 43.1 µM
COc1cc2occ(C(=O)/C=C/c3ccccc3)c2cc1O | 167 µM
O=C(/C=C/c1cccc(Cl)c1)c1coc2cc(F)c(O)cc12 | 644 µM
COc1cc2occ(C(=O)/C=C/c3ccc4c(c3)OCO4)c2cc1O | 2110 µM
COc1cc2occ(C(=O)c3ccc(-c4ccccc4)cc3)c2cc1O | 1660 µM
COc1ccc(/C=C/C(=O)c2coc3cc(F)c(O)cc23)cc1 | 814 µM
